Test results as given in patent publication US20080287375A1, “Selective Glycosidase Inhibitors, Methods of Making Inhibitors, and Uses Thereof” (SIMON FRASER UNIVERSITY, priority 2005, published 2008).

Key:
COS-7 cells = experiment: Proliferation rate and morphology of COS-7 cells incubated with inhibitors; format: cell-based; details: 50 μM inhibitor
Method: COS-7 cells were cultured in DMEM medium (Invitrogen) supplemented with 5-10% FBS (Invitrogen). Aliquots of inhibitors (50 μL of a stock in 95% ethanol) were delivered onto tissue culture plates and the ethanol was evaporated. The cells were incubated at 37° C. for 40 hours at which time they reached approximately 80% confluence. […] COS-7 cells were cultured to 25% confluence in 5% FBS and an aliquot (100 μL) of inhibitor dissolved in media and filter sterilized was added to each plate to yield a final concentration of 50 μM of inhibitor. COS-7 cells (2×10 cm plates) were harvested at the appropriate times by scraping and were pooled by centrifugation (200×g, 10 min). Cells were washed once with PBS, pH 7.0 (10 mL) and pelleted (200×g, 10 min). The cells could be frozen at −80° C. at this point. Control cultures without inhibitors were treated in the same manner.

[1] = test system: O-GlcNAc modified proteins in rat tissues; experiment: Western blot of O-GlcNAc modified proteins in tissues of rats after tail vein injection of varying doses; format: in vivo
Method: Four rats were treated by tail vein injection of different doses of inhibitor 9c or a buffer control. Two sequential injections were performed approximately 18 hours apart and the rats were then sacrificed 24 hours after the first injection. Western blot analyses using an α-O-GlcNAc antibody (CTD110.6) clearly indicate that the inhibitor 9c easily gains access into a variety of tissues including brain (A), muscle (B) and liver (C) and doses as low as 50 mg kg-1 are almost enough to elicit a maximal increase in O-GlcNAc levels.
Eight give-week old healthy Sprague-Dawley rats (Charles River) were caged in pairs. The animals were allowed to acclimatize to their new surroundings at the Simon Fraser University Animal Care Facilities (SFU ACF) for one week. At 3:00 pm, four rats were given a tail vein injection of 400 μl of inhibitor 9c dissolved in PBS buffer (pH 7.4) at a dose of 50 mg kg^−1. The remaining four rats were given a tail vein injection of 400 μl of PBS as a control. All solutions were pre-sterilized through a 0.2 μm filter (Millipore) and injected with 0.5 mL syringes containing a 28 gauge×0.5″ needle (Terumo) as bolus over 10 seconds. Food was withdrawn at approximately 11:00 pm. At 8:30 am the following morning, the rats were given a second injection. After three hours the rats were anesthetized with isoflurane and a 100 μL blood sample was taken from the jugular vein to measure the fasting blood glucose levels. An intravenous glucose tolerance test (IVGTT) was then performed. A 0.5 mL injection of a 50% w/v solution of glucose dissolved in PBS (pre-sterilized) was administered via the tail vein over 30 seconds. At 10, 20, 30, 40, 60, and 90 minutes after the injection of glucose, a 100 μL sample of blood was taken from the jugular vein. Immediately following blood sampling, a small aliquot of the blood was used to measure the blood glucose concentration using a glucometer (Accu-Check Advantage, Roche) and the remaining blood was stored on ice for 20 minutes and spun down to isolate the serum. Following completion of the IVGTT, the rats were sacrificed with 1:1 mixture of CO2/O2. Tissue samples (brain, muscle, liver, spleen, pancreas, fat) were immediately harvested and flash frozen with liquid nitrogen and stored at −80° C. To homogenize the tissues to obtain a cell extract, tissue were kept frozen while they were ground with a mortal and pestle into a fine powder. 100 mg of the powder was then homogenized in 1 mL of cold lysis buffer (50 mM Tris, 0.5% sodium deoxycholate, 0.1% SDS, 1% nonidet P-40, 1 mM EDTA, 1 mM PMSF, and 1 mM butyl-NAG-thiazoline) using two 10 second pulse on a Jenke and Kunkel Ultra-Turrax tissue homogenizer tissue homogenizer. Tissues were then spun down at 13,000 rpm in a microcentrifuge (eppendrof) to remove the cell debris. The soluble cell extract was then analyzed for levels O-GlcNAc modified proteins using Western blot analysis as described above for the cell studies.

O-GlcNAcase [2] = target: T1, O-GlcNAcase (Homo sapiens, UniProt O60502)
T1 sequence (O60502 1-916): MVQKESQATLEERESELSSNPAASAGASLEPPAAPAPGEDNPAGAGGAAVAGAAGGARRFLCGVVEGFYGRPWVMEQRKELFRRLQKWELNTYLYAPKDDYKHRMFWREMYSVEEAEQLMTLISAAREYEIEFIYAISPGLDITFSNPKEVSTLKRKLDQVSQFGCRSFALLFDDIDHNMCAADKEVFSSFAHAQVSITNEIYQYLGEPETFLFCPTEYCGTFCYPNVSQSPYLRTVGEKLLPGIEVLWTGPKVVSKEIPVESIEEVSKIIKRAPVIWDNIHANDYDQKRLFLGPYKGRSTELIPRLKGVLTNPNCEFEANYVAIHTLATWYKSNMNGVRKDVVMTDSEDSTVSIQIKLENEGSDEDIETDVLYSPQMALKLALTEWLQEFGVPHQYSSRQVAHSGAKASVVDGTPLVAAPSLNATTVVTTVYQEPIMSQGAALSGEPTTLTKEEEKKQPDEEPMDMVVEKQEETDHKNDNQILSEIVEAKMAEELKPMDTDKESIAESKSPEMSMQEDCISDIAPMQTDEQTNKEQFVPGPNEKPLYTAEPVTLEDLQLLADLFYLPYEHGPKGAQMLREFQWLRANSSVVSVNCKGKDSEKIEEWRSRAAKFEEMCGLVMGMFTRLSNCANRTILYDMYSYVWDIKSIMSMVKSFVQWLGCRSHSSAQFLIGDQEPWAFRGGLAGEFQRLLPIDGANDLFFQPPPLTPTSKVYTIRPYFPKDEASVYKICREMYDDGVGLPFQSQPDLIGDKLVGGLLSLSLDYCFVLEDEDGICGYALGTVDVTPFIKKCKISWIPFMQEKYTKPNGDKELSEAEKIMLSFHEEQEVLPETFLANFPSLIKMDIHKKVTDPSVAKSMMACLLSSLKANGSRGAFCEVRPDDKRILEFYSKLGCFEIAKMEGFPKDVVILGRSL

O-GlcNAcase [3] = target: T1, O-GlcNAcase; experiment: biochemical
[4] = target: human placental β-hexosaminidase; experiment: Inhibition of β-hexosaminidase, substrate MU-GlcNAc (5), Dixon plots; details: read-out: β-Hexosaminidase KI; Table 2; substrate 5 at 0.64 mM, pH 4.25, Dixon plots

For `CCCC1=N[C@@H]2[C@@H](O)[C@H](O)[C@@H](CO)O[C@@H]2S1` [Compound 9c, 1,2-dideoxy-2′-propyl-α-D-glucopyranoso-[2,1-d]-2′-thiazoline], the “proliferation rate or morphology compared to control cells” value (COS-7 cells) was “no abnormalities in proliferation rate or morphology”, the “discomforts of treated rats compared to the control rat” value ([1]; tail vein injection) was “did not appear to show any discomforts” and the “dose enough to elicit the maximal increase in O-GlcNAc modified proteins” value ([1]; tail vein injection) was 50 mg/kg. For the same compound, the “time for which the inhibitor retains an effect” value ([1]; tail vein injection) was at least 6 h, the “time in which the inhibitor gains access to a wide variety of tissues” value ([1]; tail vein injection) was “less than 24 hours” and the “cellular levels of O-GlcNAc modified proteins in brain tissue” value ([1]; tail vein injection, 50, 120 and 300 mg/kg, compared to controls) was “marked increases”. The “dose almost enough to elicit a maximal increase in O-GlcNAc levels” value ([1]; tail vein injection, brain, muscle, liver) was about 50 mg/kg, the “KI for O-GlcNAcase greater than that of parent compound (9a)” value (O-GlcNAcase [2]) was 3 fold and the “inhibition of O-GlcNAcase, in words” value (O-GlcNAcase [2]) was “potent inhibitors”. The “selectivity for O-GlcNAcase over β-hexosaminidase, in words” value (O-GlcNAcase [2]) was “remarkable selectivity”, the “selectivity ratio for O-GlcNAcase over β-hexosaminidase” value (O-GlcNAcase [2]) was 1500 fold and the “Selectivity Ratio (β-Hex KI/O-GlcNAcase KI)” value (O-GlcNAcase [2]; Table 2) was 1500. It also gave a Ki (O-GlcNAcase [3]) of 230 nM and a Ki [4] of 340 µM.
